Source: publication PMC7939384, “In crystallo screening for proline analog inhibitors of the proline cycle enzyme PYCR1” (The Journal of Biological Chemistry, 2021)
Where “and” joins values, the source holds several entries; their conditions need not be identical. Identical values can stand only once.

How the values were obtained:
[1] = biological target: T1, human PYCR1 (Homo sapiens, UniProt P32322); test: biochemical; conditions: for Ki: competitive with P5C, NADH fixed 175 μM
T1 sequence (P32322 1-300): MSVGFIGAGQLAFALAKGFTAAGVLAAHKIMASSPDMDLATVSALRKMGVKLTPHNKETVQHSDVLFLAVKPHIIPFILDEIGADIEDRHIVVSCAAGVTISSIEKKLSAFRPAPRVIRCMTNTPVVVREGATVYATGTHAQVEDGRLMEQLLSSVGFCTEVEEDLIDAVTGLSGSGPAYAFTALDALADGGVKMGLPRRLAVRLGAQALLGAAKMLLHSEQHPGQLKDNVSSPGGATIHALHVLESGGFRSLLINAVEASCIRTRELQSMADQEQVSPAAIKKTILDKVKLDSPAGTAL
Experimental: Over two dozen proline analogs (Fig. 2) were screened using electron density from X-ray crystallography as the readout for binding to human PYCR1. […] Because the compounds bind in the P5C/proline site, the mechanism of inhibition was assumed to be competitive with P5C. Therefore, steady-state kinetic measurements were performed with L-P5C as the variable substrate (0-1000 μM) and NADH fixed (175 μM) (Fig. 3). For each compound, the data were fit globally to a competitive inhibition model (Equation 1) to obtain an inhibition constant, Ki.
B, THFA. C, CPC. D, T4C. E, T2C. F, NFLP. The data were measured in 50 mM Tris (pH 7.5) with 1 mM EDTA disodium salt while holding NADH fixed at 175 μM and varying D,L-P5C (0–2000 μM). The concentration of the substrate L-P5C was considered to be half the total D,L-P5C concentration added to the assays. Curves represent global fits of the data to a competitive inhibition model showing initial velocity in units of µM [NAD^+] s^−1 as a function of L-P5C concentration (µM).
A C-terminal truncation variant of human PYCR1, which includes residues 1–300 of the full-length 319-residue enzyme, was used for kinetics and X-ray crystallography ([18]). PYCR1 was overexpressed in Escherichia coli BL21 (DE3) competent cells and purified using methods similar to those previously reported ([18]). Harvested cells were lysed via sonication in a mixture containing DNase I, lysozyme, and 0.2 mM phenylmethylsulfonyl fluoride protease inhibitor, and then the insoluble material was removed via centrifugation at 16,000 rpm for 1 h at 4°C. The resulting lysate was purified by gravity-flow chromatography on a column containing Ni^2+–nitrilotriacetic acid resin (Qiagen) pre-equilibrated with binding buffer consisting of 50 mM HEPES, 300 mM NaCl, 10 mM imidazole, and 5% (w/v) glycerol at pH 7.8 (buffer A). The column was washed with buffer A supplemented with 30 mM imidazole, and then the bound protein was eluted with buffer A supplemented with 300 mM imidazole. Elution fractions containing PYCR1 were identified by SDS-PAGE and prepared for further purification by size-exclusion chromatography by dialyzing into 300 mM NaCl, 2% (w/v) glycerol, and 50 mM HEPES at pH 7.5. Size-exclusion chromatography was performed on a HiLoad 16/600 Superdex 200 column equilibrated with 50 mM HEPES, pH 7.8, 300 mM NaCl, and 5% (w/v) glycerol. Purified PYCR1 was concentrated to 8 mg/ml and stored at 4°C for subsequent crystallization trials.
Kinetic measurements were performed in a BioTek Epoch 2 microplate spectrophotometer using Corning 96-well UV-transparent microplates. Activity assays were performed by monitoring the consumption of NADH at 340 nm (ε340 = 6220 M^−1 cm^−1) using P5C as the substrate. D,L-P5C was synthesized as described previously ([45]), quantified using o-aminobenzaldehyde (o-AB), and stored in 1 M HCl at 4°C. Neutralization of D,L-P5C to pH 7.5 was performed immediately prior to assays using 1 M Tris (pH 7.5) and 6 M NaOH. The concentration of the substrate L-P5C was assumed to be half the total D,L-P5C concentration added to the assays.
The following microplate protocol was employed. Substrate mixtures containing P5C, NADH, EDTA, and Tris buffer were prepared in a deep well block for each P5C concentration. Mixtures containing enzyme and various concentrations of the inhibitor were prepared in microcentrifuge tubes and incubated on ice in buffer containing 50 mM HEPES pH 7.8, 300 mM NaCl, and 5% (w/v) glycerol. The final concentration of PYCR1 in the assay was 6.25 nM. Twenty μl of the enzyme-analog mixture was added to microplate wells using a single-channel pipette, and then the reaction was initiated by addition of 180 μl of the substrate mixtures using a multi-channel pipettor. The reaction traces were followed for 35 min.

[2] = system: MCF10A hRAS^V12 spheroids; test: Intracellular proline abundance in spheroids (GC-MS); assay type: cell-based; conditions: 5 mM, 5 days

## O=CN1CCC[C@H]1C(=O)O [NFLP, N-formyl L-proline]
[1]; Ki (estimated), rounded values
  Ki: 100 µM and ~100 µM
[1]; Ki, 50 mM Tris pH 7.5, global fit
  Ki: 99 ± 7.7 µM
[1]; NFLP relative to proline
  binding free energy equivalent of the affinity increase: ~1.7 kcal/mol
  increase in affinity by addition of the formyl group to proline: 17 fold
[1]; kcat for L-P5C at fixed NADH 175 μM, global fit of the data set with this analog
  kcat: 52 ± 2 s⁻¹
[2]
  increase of intracellular proline abundance compared with THFA: about 10 fold
  increase of intracellular proline abundance compared with control: ~40 fold
